Data as given in patent publication US8202969B2, “Platelet derived growth factor receptor alpha (PDGFRA) polypeptides comprising activating mutation(s)” (Oregon Health & Science University, priority 2002, dated 2012).
Where a name gives a salt, the structure may show the parent alone.

Experiments:
[1] = test system: KIT activation loop mutations that involve residues other than aspartic acid 816; conditions: cited from earlier work
[2] = test system: KIT D816 mutations (D816V, D816Y, D816F, D816H); conditions: or equivalent D814 residue in murine KIT; cited from earlier work
[3] = test system: KIT activating mutations involving the extracellular, juxtamembrane and TK1 domain; conditions: cited from earlier work
wild-type KIT = wild-type KIT (Homo sapiens, UniProt P10721); conditions: cited from earlier work
Sequence of wild-type KIT (P10721 26-976): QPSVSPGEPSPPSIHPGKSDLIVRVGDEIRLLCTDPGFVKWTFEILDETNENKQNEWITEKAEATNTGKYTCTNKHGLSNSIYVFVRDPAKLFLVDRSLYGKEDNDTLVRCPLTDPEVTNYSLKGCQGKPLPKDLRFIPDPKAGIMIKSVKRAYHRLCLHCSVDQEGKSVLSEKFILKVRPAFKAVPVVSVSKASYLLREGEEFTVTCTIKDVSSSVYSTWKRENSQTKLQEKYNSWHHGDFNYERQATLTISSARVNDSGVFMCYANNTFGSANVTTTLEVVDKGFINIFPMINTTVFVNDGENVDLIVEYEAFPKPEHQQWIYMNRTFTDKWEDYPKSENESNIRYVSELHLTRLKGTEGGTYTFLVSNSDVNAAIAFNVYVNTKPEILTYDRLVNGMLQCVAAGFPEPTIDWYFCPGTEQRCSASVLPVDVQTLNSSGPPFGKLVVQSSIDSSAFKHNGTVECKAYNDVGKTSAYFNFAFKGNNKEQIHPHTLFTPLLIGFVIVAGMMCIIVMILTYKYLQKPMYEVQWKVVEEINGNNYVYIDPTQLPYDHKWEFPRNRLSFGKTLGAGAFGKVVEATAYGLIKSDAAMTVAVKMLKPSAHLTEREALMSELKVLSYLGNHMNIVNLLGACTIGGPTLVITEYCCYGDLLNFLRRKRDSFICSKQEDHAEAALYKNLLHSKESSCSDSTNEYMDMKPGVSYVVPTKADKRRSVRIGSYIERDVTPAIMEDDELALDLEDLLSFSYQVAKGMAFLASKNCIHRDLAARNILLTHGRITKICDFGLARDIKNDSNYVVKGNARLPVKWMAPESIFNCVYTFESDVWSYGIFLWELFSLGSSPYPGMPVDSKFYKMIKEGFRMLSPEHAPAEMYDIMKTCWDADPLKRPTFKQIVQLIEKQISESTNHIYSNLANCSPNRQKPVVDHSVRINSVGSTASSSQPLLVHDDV

CHO cells = assay: Tyrosine phosphorylation of wild-type and mutant PDGFRA transiently expressed in CHO cells (immunoblot); format: cell-based, Chinese hamster; conditions: for change of tyrosine phosphorylation by ligand stimulation: CHO cells, 100 ng/ml recombinant human PDGF-AA for 10 minutes; for baseline tyrosine phosphorylation: transient expression in CHO cells, serum starved overnight, vehicle
Procedure: FIG. 8: DGFRA mutations in GISTs result in constitutive activation of PDGFRA kinase. […] CHO cells were transiently transfected with expression vectors encoding cDNAs for wild-type or mutant PDGFRA. Transfected cells were serum starved overnight and treated with vehicle or ligand (recombinant human PDGF-AA) for 10 minutes. Whole cell lysates were immunostained sequentially for phospho-tyrosine and PDGFRA. […] In contrast, the mutant PDGFRA proteins display ligand-independent phosphorylation.
PDGFRA mutations were cloned by site-directed mutagenesis of the wild type PDGFRA cDNA. CHO cells were transiently transfected with expression vectors encoding for mutant or wild-type PDGFRA cDNA. Transfected cells were serum starved overnight and stimulated with vehicle or 100 ng/ml recombinant human PDGF-AA for 10 minutes before harvesting cells and preparing whole cell lysates for immunoblotting. The membranes were sequentially immunoblotted with antiserum against phosphorylated tyrosines (PY20 Transduction Laboratories) or total PDGFRA (Santa Cruz sc-338).

| Compound | activity against other KIT activation loop mutations [1] | activity against KIT D816 mutations [2] | activity against KIT activating mutations involving the extracellular, juxtamembrane and TK1 domain [3] | activity against the kinase activity of wild-type KIT (wild-type KIT) | change of tyrosine phosphorylation by ligand stimulation (CHO cells) | change of tyrosine phosphorylation by ligand stimulation (CHO cells; listed as Wild type PDGFRA) | baseline tyrosine phosphorylation (CHO cells) | baseline tyrosine phosphorylation (CHO cells; listed as Wild type PDGFRA) |
| --- | --- | --- | --- | --- | --- | --- | --- | --- |
| Cc1ccc(NC(=O)c2ccc(CN3CCN(C)CC3)cc2)cc1Nc1nccc(-c2cccnc2)n1 [imatinib mesylate] | some activity | no clinically useful activity | highly active | highly active | – | – | – | – |
| non-mutant PDGFRA: human PDGFRA protein, SEQ ID NO: 2 | – | – | – | – | substantially increased | upregulated | weak | low-level phosphorylation |
